31 compounds from ChEMBL document CHEMBL3352226, “Synthesis of novel derivatives of 4-methylbenzimidazole and evaluation of their biological activities” (Eur J Med Chem, 2014) can be followed below.

The nature of series [1]: Antiglycation activity using BSA assessed as inhibition of AGE formation incubated at 37 degC for 9 days by fluorescence assay. Type of series: physicochemical.
The test system of a further series is Leishmania major. The experiment in a line: Antileishmanial activity against Leishmania major JISH118 promastigotes infected in human THP1 cells by Giemsa staining method. Type of series: functional, organism-based, THP-1.
The nature of series [2]: Antioxidant activity assessed as superoxide anion radical scavenging activity by nitroblue tetrazolium method. Type of series: physicochemical.
Series [3] is described as follows: Antioxidant activity assessed as DPPH free radical scavenging activity incubated at 37 degC for 30 mins by microtiter plate reader based method. In kind it is physicochemical. On the technique in general: The DPPH test is a chemical assay of radical scavenging.
Series [4] in a line: Toxicity against human THP1 cells assessed as reduction in cell viability after 48 hrs by trypan blue dye exclusion method. In kind it is cell-based. The conditions noted are these: thp-1, 48 h.
Series [5] is described as follows: Antiglycation activity using BSA assessed as inhibition of AGE formation incubated at 37 degC for 9 days by fluorescence assay relative to untreated control. Type of series: physicochemical. To be noted: cattle, 216 h.
Setting [6] is: Leishmania major, JISH118, THP-1, read-out: IC50.

Usually IC50 stands for the concentration at which inhibition is half-maximal. Take `COc1ccc(/C=N/NC(=O)c2ccc(-c3nc4cccc(C)c4[nH]3)cc2)cc1O`: the IC50 in series [1] (read-out: IC50) is 360 µM; with Leishmania major (thp-1) it was “Not Active”; in series [2], 222 µM; in series [3] it was 49.1 µM. Besides, the Activity result in series [4] is “Non-toxic”.
In the case of `Cc1ccccc1/C=N/NC(=O)c1ccc(-c2nc3cccc(C)c3[nH]2)cc1`, the half-inhibitory concentration (IC50) entry was “Not Active” in series [1], “Not Active” with Leishmania major (thp-1), 340 µM in series [2] and 158 µM in series [3]. In series [5], the “inhibition (INH)” value is listed as less than 50%. In series [4], the Activity result is listed as “Non-toxic”.
On to `Cc1cccc2nc(-c3ccc(C(=O)N/N=C/c4ccccc4O)cc3)[nH]c12`, for which the IC50 in series [1] (read-out: IC50) was 380 µM; with Leishmania major (thp-1), “Not Active”; in series [2] it was 209 µM; in series [3], 54.1 µM. Further, in series [4], the Activity result was “Non-toxic”.
For `Cc1cccc2nc(-c3ccc(C(=O)N/N=C/c4ccc(Cl)cc4)cc3)[nH]c12`, the IC50 entry in series [1] is “Not Active”; in the series on Leishmania major (thp-1) it was “Not Active”; in series [2], 360 µM; in series [3] it was 120 µM. Moreover, the “inhibition (INH)” value in series [5] was less than 50%. Also, in series [4], the Activity result was “Non-toxic”.
`CCCOC(=O)c1cc(O)c(O)c(O)c1` [PROPYL GALLATE]: the IC50 in series [2] is 106 µM; in series [3] it was 30.3 µM.
For `COc1ccc(O)c(/C=N/NC(=O)c2ccc(-c3nc4cccc(C)c4[nH]3)cc2)c1`, the IC50 was 400 µM in series [1] (read-out: IC50), “Not Active” in the series with Leishmania major (thp-1), 215 µM in series [2] and 74.2 µM in series [3]. The Activity result in series [4] is “Non-toxic”.
Regarding `Cc1cccc2nc(-c3ccc(C(=O)N/N=C/c4cccnc4)cc3)[nH]c12`, the IC50 result in series [1] was “Not Active”; in the series with Leishmania major (thp-1) it was “Not Active”; in series [2] it was 310 µM; in series [3] it was 105 µM. The “inhibition (INH)” value in series [5] is less than 50%. The Activity entry in series [4] is reported as “Non-toxic”.
Regarding `COC(=O)c1ccc(/C=N/NC(=O)c2ccc(-c3nc4cccc(C)c4[nH]3)cc2)cc1`, the half-inhibitory concentration (IC50) was 501 µM in series [1] (read-out: IC50), “Not Active” with Leishmania major (thp-1), 322 µM in series [2] and 160 µM in series [3]. The Activity entry in series [4] is on record as “Non-toxic”.
Turning to `Cc1cccc2nc(-c3ccc(C(=O)N/N=C/c4cccs4)cc3)[nH]c12`, the half-maximal inhibitory concentration (IC50) result in series [1] is “Not Active”; with Leishmania major (thp-1), “Not Active”; in series [2] it was 320 µM; in series [3], 110 µM. Besides, the “inhibition (INH)” value in series [5] is recorded as less than 50%. For the same compound, the Activity result in series [4] was “Non-toxic”.
Turning to `Cc1cccc2nc(-c3ccc(C(=O)N/N=C/c4ccc(F)cc4)cc3)[nH]c12`, the half-inhibitory concentration (IC50) result in series [1] is “Not Active”; in the series on Leishmania major (thp-1), “Not Active”; in series [2], 320 µM; in series [3], 90.2 µM. Moreover, the “inhibition (INH)” value in series [5] is reported as less than 50%. Also, in series [4], the Activity result is reported as “Non-toxic”.
Turning to `COc1ccc(/C=N/NC(=O)c2ccc(-c3nc4cccc(C)c4[nH]3)cc2)c(I)c1O`, the half-maximal inhibitory concentration (IC50) in series [1] (read-out: IC50) is 405 µM; with Leishmania major (thp-1), “Not Active”; in series [2], 210 µM; in series [3], 40.1 µM. In addition, in series [4], the Activity result is “Non-toxic”.
On to `C[C@@H]1O[C@@H](OC[C@H]2O[C@@H](Oc3c(-c4ccc(O)c(O)c4)oc4cc(O)cc(O)c4c3=O)[C@H](O)[C@@H](O)[C@@H]2O)[C@H](O)[C@H](O)[C@H]1O` [RUTIN], for which the IC50 in series [1] (read-out: IC50) turned out to be 294 µM.
For `Cc1cccc2nc(-c3ccc(C(=O)N/N=C/c4ccc(O)c(O)c4)cc3)[nH]c12`, the IC50 was 190 µM in series [1] (read-out: IC50), “Not Active” in the series with Leishmania major (thp-1), 81 µM in series [2] and 14.2 µM in series [3]. In addition, the Activity result in series [4] is “Non-toxic”.
For `Cc1cccc2nc(-c3ccc(C(=O)N/N=C/c4cccc(O)c4)cc3)[nH]c12`, the IC50 is 280 µM in series [1] (read-out: IC50), “Not Active” in the series with Leishmania major (thp-1), 212 µM in series [2] and 60.2 µM in series [3]. In addition, the Activity entry in series [4] was “Non-toxic”.
For the compound `Cc1cccc2nc(-c3ccc(C(=O)N/N=C/c4ccncc4)cc3)[nH]c12`, the concentration for half-maximal inhibition (IC50) entry in series [1] is “Not Active”; in the series with Leishmania major (thp-1) it was “Not Active”; in series [2], 340 µM; in series [3] it was 88.4 µM. Also, in series [5], the “inhibition (INH)” value is less than 50%. Moreover, the Activity result in series [4] is recorded as “Non-toxic”.
As for `Cc1cccc(/C=N/NC(=O)c2ccc(-c3nc4cccc(C)c4[nH]3)cc2)c1`, the IC50 entry in series [1] is “Not Active”; in the series on Leishmania major (thp-1) it was “Not Active”; in series [2], 345 µM; in series [3] it was 150 µM. The “inhibition (INH)” value in series [5] was less than 50%. The Activity entry in series [4] is “Non-toxic”.
On to `COc1ccc(/C=N/NC(=O)c2ccc(-c3nc4cccc(C)c4[nH]3)cc2)cc1OC`, for which the half-maximal inhibitory concentration (IC50) result in series [1] was “Not Active”; in the series with Leishmania major (thp-1) it was “Not Active”; in series [2], 330 µM; in series [3] it was 120 µM. Also, the “inhibition (INH)” value in series [5] is on record as less than 50%. The Activity result in series [4] is given as “Non-toxic”.
Take `N=C(N)c1ccc(OCCCCCOc2ccc(C(=N)N)cc2)cc1` [PENTAMIDINE]: the IC50 in the series on Leishmania major (setting [6]) was 7.02 µM.
Regarding `Cc1cccc2nc(-c3ccc(C(=O)N/N=C/c4cc(O)cc(O)c4)cc3)[nH]c12`, the IC50 in series [1] (read-out: IC50) was 195 µM; in the series with Leishmania major (thp-1), “Not Active”; in series [2], 90 µM; in series [3], 17.3 µM. Further, the Activity entry in series [4] is “Non-toxic”.
Consider `Cc1cccc2nc(-c3ccc(C(=O)N/N=C/c4ccccn4)cc3)[nH]c12`, for which the IC50 result in series [1] is “Not Active”; with Leishmania major (thp-1), “Not Active”; in series [2], 350 µM; in series [3], 94.3 µM. The “inhibition (INH)” value in series [5] is on record as less than 50%. For the same compound, in series [4], the Activity entry is listed as “Non-toxic”.
For the compound `Cc1cccc2nc(-c3ccc(C(=O)N/N=C/c4cccc(O)c4O)cc3)[nH]c12`, the IC50 in series [1] (read-out: IC50) worked out at 220 µM; with Leishmania major (setting [6]), 37.8 µM; in series [2] it was 82 µM; in series [3], 12.1 µM. Moreover, in series [4], the Activity entry is on record as “Non-toxic”.
For `COc1cc(/C=N/NC(=O)c2ccc(-c3nc4cccc(C)c4[nH]3)cc2)ccc1O`, the IC50 in series [1] (read-out: IC50) is 271 µM; in the series with Leishmania major (thp-1) it was “Not Active”; in series [2] it was 104 µM; in series [3] it was 26.2 µM. The Activity result in series [4] was “Non-toxic”.
The matching figures for `Cc1cccc2nc(-c3ccc(C(=O)N/N=C/c4cc(O)ccc4O)cc3)[nH]c12`: 206 µM, “Not Active”, 86.1 µM, 18.5 µM and “Non-toxic”.
With `Cc1cccc2nc(-c3ccc(C(=O)N/N=C/c4ccc([N+](=O)[O-])cc4)cc3)[nH]c12`, the IC50 in series [1] (read-out: IC50) is 450 µM; in the series on Leishmania major (thp-1) it was “Not Active”; in series [2] it was 312 µM; in series [3] it was 138 µM. The Activity result in series [4] is on record as “Non-toxic”.
In the same order, the values of `Cc1cccc2nc(-c3ccc(C(=O)N/N=C/c4ccc(O)cc4)cc3)[nH]c12` are 150 µM, “Not Active”, 101 µM, 29 µM and “Non-toxic”.
The matching figures for `COc1ccc(/C=N/NC(=O)c2ccc(-c3nc4cccc(C)c4[nH]3)cc2)c(O)c1`: 340 µM, “Not Active”, 202 µM, 47.5 µM and “Non-toxic”.
Regarding `COc1ccc(/C=N/NC(=O)c2ccc(-c3nc4cccc(C)c4[nH]3)cc2)cc1`, the IC50 result in series [1] was “Not Active”; in the series with Leishmania major (thp-1), “Not Active”; in series [2], 340 µM; in series [3], 140 µM. Further, in series [5], the “inhibition (INH)” value was less than 50%. Besides, the Activity entry in series [4] is recorded as “Non-toxic”.
For the compound `Cc1cccc2nc(-c3ccc(C(=O)N/N=C/c4ccc(O)cc4O)cc3)[nH]c12`, the 50% inhibitory concentration (IC50) in series [1] (read-out: IC50) was 140 µM; in the series with Leishmania major (thp-1), “Not Active”; in series [2], 92.1 µM; in series [3], 27.4 µM. Moreover, the Activity entry in series [4] is on record as “Non-toxic”.
For `Cc1cccc2nc(-c3ccc(C(=O)N/N=C/c4ccc(O)c(Br)c4)cc3)[nH]c12`, the IC50 in series [1] (read-out: IC50) was 350 µM; with Leishmania major (thp-1), “Not Active”; in series [2], 190 µM; in series [3], 25.2 µM. Moreover, in series [4], the Activity result was “Non-toxic”.
For the compound `Cc1cccc2nc(-c3ccc(C(=O)N/N=C/c4ccco4)cc3)[nH]c12`, the IC50 result in series [1] is “Not Active”; with Leishmania major (thp-1) it was “Not Active”; in series [2], 310 µM; in series [3], 180 µM. The “inhibition (INH)” value in series [5] is reported as less than 50%. For the same compound, the Activity result in series [4] is listed as “Non-toxic”.
In the case of `COc1cccc(/C=N/NC(=O)c2ccc(-c3nc4cccc(C)c4[nH]3)cc2)c1`, the half-maximal inhibitory concentration (IC50) result in series [1] was “Not Active”; in the series with Leishmania major (thp-1), “Not Active”; in series [2] it was 345 µM; in series [3], 145 µM. The “inhibition (INH)” value in series [5] is on record as less than 50%. The Activity entry in series [4] was “Non-toxic”.
